Source: PubChem BioAssay (NCI)
“And” between values parts separate entries of the source, which are not always exact repeats. Equal values may be shown once.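 Tested at 5 concentrations; 48 h exposure; 96-well plates; endpoints linearly interpolated, else capped at highest concentration. GI50 = concentration required for 50% inhibition of growth. TGI: concentration producing complete growth inhibition.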

Tests used:
Assay in all cases: growth of human tumour cells (NCI), 48 h
SK-OV-3 ovarian = system: SK-OV-3 ovarian
A498 renal = system: A498 renal
UO-31 renal = system: UO-31 renal
UACC-257 melanoma = system: UACC-257 melanoma
HL-60(TB) leukemia = system: HL-60(TB) leukemia
HT29 colon = system: HT29 colon
COLO 205 colon = system: COLO 205 colon
NCI-H226 lung = system: NCI-H226 lung
CCRF-CEM leukemia = system: CCRF-CEM leukemia
SNB-75 CNS = system: SNB-75 CNS
PC-3 prostate = system: PC-3 prostate
MDA-N = system: MDA-N
KM12 colon = system: KM12 colon
T-47D breast = system: T-47D breast
LOX IMVI melanoma = system: LOX IMVI melanoma

Compound | TGI (SK-OV-3 ovarian) | TGI (A498 renal) | TGI (UO-31 renal) | TGI (UACC-257 melanoma) | TGI (HL-60(TB) leukemia) | TGI (HT29 colon) | TGI (COLO 205 colon) | TGI (NCI-H226 lung) | TGI (CCRF-CEM leukemia) | TGI (SNB-75 CNS) | TGI (PC-3 prostate) | TGI (MDA-N) | TGI (KM12 colon) | TGI (T-47D breast) | TGI (LOX IMVI melanoma) | GI50 (UACC-257 melanoma) | GI50 (HT29 colon) | GI50 (COLO 205 colon) | GI50 (SNB-75 CNS) | GI50 (T-47D breast)
COc1ccc2c(O)c1-c1c(OC)ccc(c1O)SSc1ccc(OC)c(c1O)-c1c(OC)ccc(c1O)SS2 | > 100 µM | > 100 µM | 14 µM | > 100 µM | > 100 µM | > 100 µM | > 100 µM | > 100 µM | > 100 µM | > 100 µM | 26.4 µM | > 100 µM | > 100 µM | 62.9 µM | > 100 µM | – | – | – | – | –
CCCCCCCCCCCCCCCCCCN(C)CC(COC)OP(=O)([O-])OCC[N+](C)(C)C (stereo unspecified) | 25.1 µM | 14 µM | 20.2 µM | 22.7 µM | 8.53 µM | 4.66 µM | 2.6 µM | 13.5 µM | 5.16 µM | 3.68 µM | 1.47 µM | 15.3 µM | 1.62 µM | 32.7 µM | 20.2 µM | – | – | – | – | –
[O-]c1c2c(nn1-c1ccc(F)cc1)c1ccccc1c[n+]2Cc1ccccc1 | 41.8 µM | 85.3 µM | 54.9 µM | 30.3 µM | 11.1 µM | 27.1 µM | 4.52 µM | 47.4 µM | 33.7 µM | 60.5 µM | – | – | 25 µM | – | – | – | – | – | – | –
CC(C)=CCC/C(C)=C/Cc1c2c(c3oc(-c4ccc(O)c(O)c4)c(O)c(=O)c3c1O)C=CC(C)(C)O2 | 8.65 µM | 12.9 µM | 10.2 µM | 11.2 µM | 6.29 µM | 9.79 µM | 5.33 µM | 15.2 µM | 8.82 µM | 11.6 µM | 12.5 µM | 11.4 µM | 9.89 µM | 7.39 µM | – | – | – | – | – | –
Cc1ccc(C(=O)NC2C(=O)NC(C(C)C)C(=O)N3CCCC3C(=O)N(C)CC(=O)N(C)C(C(C)C)C(=O)OC2C)c2c1Oc1c(c(C(=O)NC3C(=O)NC(C(C)C)C(=O)N4CCCC4C(=O)N(C)CC(=O)N(C)C(C(C)C)C(=O)OC3C)c3nc(-c4ccccc4)c(=O)oc3c1C)N2 (stereo unspecified) | 16.1 µM | 0.00273 µM | 0.194 µM and 0.122 µM | 0.122 µM | 0.557 µM | – | 0.0295 µM | 0.00507 µM | 0.697 µM | 0.0132 µM | 0.544 µM and 0.129 µM | 0.0236 µM | 0.00317 µM | 0.168 µM | – | – | – | – | – | –
O=C(c1ccccc1)c1ccc(N2C(=O)/C(=C/c3ccccc3S)N=C2c2ccccc2)c(N2C(=O)/C(=C/c3ccccc3S)N=C2c2ccccc2)c1 | > 100 µM | > 100 µM | > 100 µM | > 100 µM | > 100 µM | > 100 µM | > 100 µM | – | > 100 µM | 65.8 µM | > 100 µM | > 100 µM | > 100 µM | > 100 µM | 62.9 µM | – | – | – | – | –
Cc1csc2nc(-c3cc([N+](=O)[O-])c(Cl)cc3Cl)c(/C=N/N=C(N)N)n12 | – | 35 µM | 29.4 µM | 32.8 µM | 28.9 µM | 30.5 µM | 36.8 µM | 34.6 µM | > 100 µM | – | 38.9 µM | – | 32.4 µM | 33.1 µM | 33.1 µM | – | – | – | – | –
CCCCC(CC)C(=O)Oc1ccc(C(=O)c2ccccc2)c(O)c1 (stereo unspecified) | > 100 µM | > 100 µM | > 100 µM | > 100 µM | > 100 µM | > 100 µM | > 100 µM | – | > 100 µM | 74.3 µM | > 100 µM | > 100 µM | > 100 µM | > 100 µM | > 100 µM | – | – | – | – | –
C=C(C)[C@@H]1CC[C@]2(C(=O)O)CC[C@]3(C)[C@H](CC[C@@H]4[C@@]5(C)C/C(=C/c6ccco6)C(=O)C(C)(C)[C@@H]5CC[C@]43C)[C@@H]12 | – | – | – | > 100 µM | – | > 100 µM | 4.38 µM | – | – | > 100 µM | – | – | – | 33.3 µM | – | 3.12 µM | 3.05 µM | 2.15 µM | > 100 µM | 3.2 µM
CC(=O)NC1C(OCc2ccccc2)OC(CO)C(O)C1OCC(=O)NC(C(=O)NC(CCC(=O)NCCCCCC(=O)Nc1ccc2c(c1)CN1C(=O)c3ccccc3C1=N2)C(N)=O)C(C)C (stereo unspecified) | 44.6 µM | 73.7 µM | > 100 µM | 66.7 µM | > 100 µM | > 100 µM | > 100 µM | – | > 100 µM | 41.1 µM | 70.8 µM | > 100 µM | 48.7 µM | 68 µM | > 100 µM | – | – | – | – | –
CCCCCCC(=O)OC[n+]1ccc(-c2c(COC(=O)NC(C)C)c(COC(=O)NC(C)C)c3n2CCC3)cc1 | > 100 µM | > 94.2 µM | > 100 µM | > 100 µM | > 71.4 µM | > 100 µM | > 100 µM | > 100 µM | > 88 µM | > 100 µM | > 100 µM | – | > 100 µM | > 100 µM | > 100 µM | – | – | – | – | –
